Measurements: patent US20240238299A1, “USE OF PYRROLOPYRIMIDINE COMPOUND” (GUANGZHOU JOYO PHARMATECH CO., LTD, priority 2021, published 2024)

Assays:
[1] = tested on: IL-6 secretion by astrocytes; assay: IL-6 release caused by NMO-IgG in astrocytes (ELISA); format: cell-based, rat; conditions: Rattus norvegicus, Astrocyte, 24 h, NMO-IgG 250 μg/mL, read-out: IL-6 inhibition rate, Mean
Experimental: The compound was dissolved in DMSO to prepare a compound stock solution. The compound stock solution was then serially diluted in a gradient using DMSO to prepare a series of 1000× test compound solutions. These 1000× test compound solutions were further diluted at a ratio of 1:100 with cell culture medium to prepare a series of 10× test compound solutions. Finally, according to the experimental well plate loading design, a corresponding volume of 10× solution was added to each well, with two duplicate wells for each drug concentration. In the experiment, the test solution (i.e., 1× solution) had varying final concentrations of compound I, specifically 20, 2.222, 0.247, and 0.027 μM; the concentration of Meprednisone compound (i.e., 1× solution) was 30 μM; the concentration of BAY 11-7082 (i.e., 1× solution) was 5 μM; the final DMSO concentration in each well was 0.1%. DMSO without compound was added to blank control wells, with a final concentration of 0.1%.
1) Extraction and separation of primary astrocytes: A mixed glial cell culture medium was prepared from the cerebral cortex of 1-day-old newborn rats. After euthanizing the newborn rats, they were immersed in alcohol. Their skin was cut, the brains were removed, and the cerebral cortex was isolated. The tissues were then ground to remove the connective tissue, and the mixed glial cells were sieved through a 70 µm cell strainer. These cells were then seeded into a cell culture plate coated with poly-L-lysine. The culture medium was DMEM, containing 10% heat-inactivated fetal bovine serum, 100 U/mL penicillin, and […]. After about 12 days of in vitro culture, the cells reached confluence. Microglia, endothelial cells, and oligodendrocytes were removed from the mixed glial cells by vibratory shaking. […] 2) Culture of astrocytes: The isolated astrocytes were cultured in a 37° C., 5% CO2 incubator. The culture medium was changed every 3 to 4 days. The astrocytes could also be digested using trypsin (0.25%) and then frozen in liquid nitrogen for future use.
Human NMO-IgG was isolated from a sterile-filtered serum pool (AQP4-IgG-positive NMOSD) using a HiTrap Protein G-HP column (GE Healthcare). The serum samples were diluted at a ratio of 1:1 with binding buffer, and after packing the purification column with binding buffer, the serum sample was added. The column was subsequently washed with binding buffer again and the antibodies were eluted according to the instructions. Finally, the antibodies were concentrated on an Amicon Ultra-4 centrifugal filter (millipore) with a 10,000 MW cutoff. The concentrated immunoglobulin was filtered through a 0.22 µm filter. The protein concentration of the concentrate was determined using the BCA method and stored at −80° C. The total IgG extracted from the serum of NMOSD patients was NMO-IgG (containing AQP4-IgG), and the cells were stimulated at a protein concentration of 250 μg/mL during the experiment.
Astrocytes were cultured or revived until day 2 and then seeded into a 24-well plate at a density of 1.5×10^5 cells per well. The test compounds, including compound I, Meprednisone, and BAY11-7082, were pre-incubated with the cells for 30 minutes at the concentrations previously described. Subsequently, in each group, the cells continued to be stimulated with NMO-IgG at a final working concentration of 250 μg/mL for 24 hours to induce astrocyte damage. Normal human Control-IgG (CON-IgG) stimulation at a final working concentration of 250 μg/mL was used as a negative control.
After 24 hours of NMO-IgG stimulation of cells, the supernatant was collected. IL-6 levels were detected using an enzyme-linked immunosorbent assay (ELISA) following the instructions of the IL-6 ELISA kit (R&D Systems, USA, #RD6000B). The absorbance (OD values) of the samples in each group was measured, and the concentration of IL-6 in each experimental group was calculated through standard curve fitting. […]

BV-2 cells = assay: CTG cell proliferation assay, LPS/IFN-γ-activated BV-2 cells; format: cell-based, Mouse
Experimental: Step 1: BV-2 cells in the exponential growth phase were collected, and viable cells were counted using a Vi-Cell XR cell counter. The cell suspension was adjusted to an appropriate concentration with the culture medium. 160 μL of cell suspension was added to each well of a 96-well cell culture plate, resulting in a final cell concentration of 12,000 cells per well. The culture plate was incubated for 24 hours in a 37° C., 5% CO2 incubator.
Step 2: A 10 mM DMSO compound stock solution was diluted at a ratio of 1:4 using DMSO to prepare a series of 1000× test compound solutions. These 1000× test compound solutions were further diluted at a ratio of 1:100 using cell culture medium to prepare a series of 10× test compound solutions. Finally, the 96-well plate that had been plated with cells the day before was taken out. According to the experimental well plate loading design, 20 μL of the corresponding 10× solution was added to each well, with three duplicate wells for each drug concentration. The final concentrations of the test compounds used in the experiment (i.e., 1× solutions) have a range of 10, 2.5, 0.625, 0.156, 0.0391, 0.0098, and 0.0024 μM. The final DMSO concentration in each well was 0.1%.
After the compound was added, the 96-well plate was incubated for half an hour in the 37° C., 5% CO2 incubator.
After the pre-incubation was completed, 20 μL of culture medium containing 100 ng/mL LPS and 100 ng/mL IFN-γ (final concentrations of 10 ng/mL LPS and 10 ng/mL IFN-7) was added to each well to induce the activation of BV-2 cells. The culture plate was then incubated for 24 hours in the 37° C., 5% CO2 incubator.
Step 3: After 24 hours of treatment with the compound, the culture plate was centrifuged at 1200 rpm for 5 minutes. The supernatant was pipetted into another plate, which was sealed with tinfoil and stored at −20° C. for future ELISA and Griess reagent system assays. The cell culture plate from which the supernatant had been removed was immediately used for cell proliferation assays using the CellTiter-Glo (CTG) method.
Step 4: In the cell culture plate from which the supernatant had been removed, 100 μL of PBS was added to each well. According to the instructions of the CellTiter-Glo (CTG) kit, 50 μL of pre-melted and room-temperature balanced CTG solution was added to each well. The plate was then mixed for 2 minutes using a microplate shaker. After letting it stand at room temperature for 10 minutes, the fluorescence signal value was measured using an Envision 2104 plate reader.
Step 1: Using the CTG fluorescence signal values, the percentage of surviving cells (surviving cells %) at each test concentration relative to the blank (DMSO) group was calculated. The formula was: surviving cells %=fluorescence value of the test concentration group/fluorescence value of the blank group.
Step 2: the percentage of surviving cells was plotted against the logarithm of the compound concentration. Nonlinear regression was used to fit the curve, and the formula “log(inhibitor) vs. response—Variable slope” in the software GraphPad Prism 5 was employed to calculate the IC50 value.
Step 3: The formula for calculating the inhibition rate was: inh. (%)={fluorescence value of the blank group−fluorescence value of the test concentration group}/fluorescence value of the blank (DMSO) group.

In the case of `CN(c1ncnc2[nH]ccc12)[C@@H]1CCc2cc(C#N)nn2C1` [Compound I], the inhibition at 0.027 µM ([1]; 0.027 μM) is reported as 30.4%, the inhibition at 0.247 µM ([1]; 0.247 μM) is reported as 54% and the inhibition at 2.222 µM ([1]; 2.222 μM) is reported as 94.3%. The inhibition at 20 µM ([1]; 20 μM) was about 98.8%, the “inhibitory effect on cell proliferation” value (BV-2 cells; 24 h co-incubation with BV-2, highest test concentration 10 μM) was “no inhibitory effect on cell proliferation” and the “maximum rate of increase in cell numbers compared to blank (DMSO) well” value (BV-2 cells; BV-2, 24 h, concentration greater than 0.1 μM) was 46.39%. It also gave an inhibition at up to 10 µM (BV-2 cells; Mus musculus, BV-2, 24 h co-incubation, LPS/IFN-γ, highest concentration 10 μM, read-out: Maximum inhibition rate on BV-2 cell proliferation) of -46.4%.
